According to ChEMBL document CHEMBL1129939, “Meta-substituted benzofused macrocyclic lactams as zinc metalloprotease inhibitors” (J Med Chem, 1997):

Columns and labels:
[1] = molecular target: Angiotensin-converting enzyme (Homo sapiens, UniProt P12821); experiment: Inhibitory concentration required to inhibit Angiotensin I converting enzyme (ACE)
Neprilysin = Neprilysin (Homo sapiens, UniProt P08473); experiment: Inhibitory concentration required to inhibit neutral endopeptidase (NEP)
Thermolysin = molecular target: T1, Thermolysin (Bacillus thermoproteolyticus, UniProt P00800); experiment: Inhibitory concentration required to inhibit thermolysin (TLN)
T1 sequence (P00800 whole entry): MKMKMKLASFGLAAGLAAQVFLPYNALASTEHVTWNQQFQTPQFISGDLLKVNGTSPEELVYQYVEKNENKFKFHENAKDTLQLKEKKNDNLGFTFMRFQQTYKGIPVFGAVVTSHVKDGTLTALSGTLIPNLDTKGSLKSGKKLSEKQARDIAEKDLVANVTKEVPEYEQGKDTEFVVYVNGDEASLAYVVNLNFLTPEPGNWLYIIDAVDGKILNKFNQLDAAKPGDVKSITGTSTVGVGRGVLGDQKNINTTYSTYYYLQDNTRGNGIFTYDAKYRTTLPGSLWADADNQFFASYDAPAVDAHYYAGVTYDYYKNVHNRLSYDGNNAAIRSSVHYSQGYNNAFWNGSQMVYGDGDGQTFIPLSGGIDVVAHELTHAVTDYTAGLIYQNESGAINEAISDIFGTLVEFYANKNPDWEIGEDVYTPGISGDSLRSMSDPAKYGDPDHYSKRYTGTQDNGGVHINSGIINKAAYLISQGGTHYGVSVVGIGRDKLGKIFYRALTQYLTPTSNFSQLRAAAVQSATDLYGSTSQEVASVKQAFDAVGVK

Sequence of Angiotensin-converting enzyme (P12821 whole entry): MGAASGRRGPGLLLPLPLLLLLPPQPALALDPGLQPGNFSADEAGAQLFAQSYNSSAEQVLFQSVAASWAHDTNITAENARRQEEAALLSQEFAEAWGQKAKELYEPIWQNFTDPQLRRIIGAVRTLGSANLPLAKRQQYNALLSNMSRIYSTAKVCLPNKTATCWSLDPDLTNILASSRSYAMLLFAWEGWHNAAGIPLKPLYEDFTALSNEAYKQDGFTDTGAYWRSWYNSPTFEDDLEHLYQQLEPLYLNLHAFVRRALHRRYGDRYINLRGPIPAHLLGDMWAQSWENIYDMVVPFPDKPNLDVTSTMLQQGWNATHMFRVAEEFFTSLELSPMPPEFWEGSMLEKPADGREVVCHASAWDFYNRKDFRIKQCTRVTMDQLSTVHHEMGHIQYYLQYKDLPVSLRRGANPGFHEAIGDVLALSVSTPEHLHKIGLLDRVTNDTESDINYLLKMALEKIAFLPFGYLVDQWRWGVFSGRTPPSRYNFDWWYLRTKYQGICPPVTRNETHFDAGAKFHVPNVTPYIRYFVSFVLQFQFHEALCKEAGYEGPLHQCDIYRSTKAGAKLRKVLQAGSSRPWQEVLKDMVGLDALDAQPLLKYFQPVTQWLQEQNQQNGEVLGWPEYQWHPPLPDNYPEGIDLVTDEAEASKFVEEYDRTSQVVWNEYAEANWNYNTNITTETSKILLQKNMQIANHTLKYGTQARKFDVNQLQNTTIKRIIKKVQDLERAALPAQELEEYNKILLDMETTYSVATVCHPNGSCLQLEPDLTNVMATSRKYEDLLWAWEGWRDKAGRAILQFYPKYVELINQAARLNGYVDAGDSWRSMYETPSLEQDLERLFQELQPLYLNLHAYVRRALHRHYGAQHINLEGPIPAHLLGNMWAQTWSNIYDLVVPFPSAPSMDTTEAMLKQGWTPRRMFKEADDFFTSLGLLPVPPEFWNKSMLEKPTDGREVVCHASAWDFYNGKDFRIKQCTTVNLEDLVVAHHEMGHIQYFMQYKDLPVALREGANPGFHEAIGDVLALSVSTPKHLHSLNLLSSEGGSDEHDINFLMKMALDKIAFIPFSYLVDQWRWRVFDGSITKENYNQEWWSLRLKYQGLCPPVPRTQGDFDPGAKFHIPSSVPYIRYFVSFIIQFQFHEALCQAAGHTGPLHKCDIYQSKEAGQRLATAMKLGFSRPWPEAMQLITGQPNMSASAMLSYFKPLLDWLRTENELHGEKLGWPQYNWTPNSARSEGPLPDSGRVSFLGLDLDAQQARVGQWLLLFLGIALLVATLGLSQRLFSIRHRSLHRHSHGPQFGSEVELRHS
Sequence of Neprilysin (P08473 whole entry): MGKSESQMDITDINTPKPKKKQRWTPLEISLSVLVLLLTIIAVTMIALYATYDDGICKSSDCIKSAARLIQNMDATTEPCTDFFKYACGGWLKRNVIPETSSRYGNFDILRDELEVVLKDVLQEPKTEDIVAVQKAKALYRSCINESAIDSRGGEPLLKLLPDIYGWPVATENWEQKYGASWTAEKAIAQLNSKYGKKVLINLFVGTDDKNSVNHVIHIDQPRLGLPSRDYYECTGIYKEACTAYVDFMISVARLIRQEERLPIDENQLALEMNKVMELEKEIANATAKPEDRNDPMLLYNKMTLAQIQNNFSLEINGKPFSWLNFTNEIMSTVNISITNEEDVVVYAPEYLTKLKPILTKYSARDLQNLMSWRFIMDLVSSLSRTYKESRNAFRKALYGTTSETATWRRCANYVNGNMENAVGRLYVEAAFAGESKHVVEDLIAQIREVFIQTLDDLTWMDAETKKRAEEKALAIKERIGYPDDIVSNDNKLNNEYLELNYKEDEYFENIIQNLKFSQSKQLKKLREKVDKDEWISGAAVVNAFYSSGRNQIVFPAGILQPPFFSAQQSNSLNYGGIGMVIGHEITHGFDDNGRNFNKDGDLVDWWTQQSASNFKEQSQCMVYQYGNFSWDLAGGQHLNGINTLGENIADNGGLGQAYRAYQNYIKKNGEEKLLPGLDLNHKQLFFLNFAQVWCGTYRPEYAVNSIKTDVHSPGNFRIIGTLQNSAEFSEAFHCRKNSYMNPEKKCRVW

SMILES	IC50 [1] [nM]	IC50 (Neprilysin) [nM]	IC50 (Thermolysin) [µM]
O=C1N[C@H](C(=O)O)Cc2ccccc2CCCCCC[C@@H]1CS	725		
O=C1N[C@@H](C(=O)O)Cc2ccccc2CCCCCCC[C@@H]1CS	> 10000		
O=C1N[C@@H](C(=O)O)Cc2ccccc2CCCCCC[C@@H]1CS	470		
O=C1N[C@H](C(=O)O)CCCCCc2ccccc2C[C@H]1CS	2000		
O=C1N[C@H](C(=O)O)CCCCCCc2ccccc2C[C@H]1CS	> 10000	224	41
O=C1N[C@H](C(=O)O)CCCCCc2cccc(c2)C[C@H]1CS	1400	1000	> 10
O=C1N[C@H](C(=O)O)CCCCc2ccccc2C[C@H]1CS	> 10000		
O=C1N[C@@H](C(=O)O)Cc2ccccc2CCCCC[C@@H]1CS	6000		
O=C1N[C@H](C(=O)O)CCCCc2ccccc2C[C@@H]1CS	> 10000		
C[C@H](CS)C(=O)N1Cc2[nH]c3ccccc3c2CC1C(=O)O (some centres not stated)	500		
O=C1N[C@H](C(=O)O)CCCCCCc2ccccc2C[C@@H]1CS	> 10000	27	1.8
O=C1N[C@H](C(=O)O)CCCCCCc2cccc(c2)C[C@H]1CS	118	445	> 10
O=C1N[C@H](C(=O)O)CCCCCCc2cccc(c2)C[C@@H]1CS	175	4	34
O=C1N[C@H](C(=O)O)CCCCCc2ccccc2C[C@@H]1CS	8000		
O=C1N[C@H](C(=O)O)CCCCCc2cccc(c2)C[C@@H]1CS	4	8	48
